Among the data in patent US10292981B2, “Oxazoline and isoxazoline derivatives as CRAC modulators” (LUPIN LIMITED, priority 2010, dated 2019) are IC50 values, retold here.

As a reminder, the IC50 is the concentration needed to halve the response being measured.

The subject of the experiment is IL-2 secretion, Jurkat T cells. Description: Inhibition of IL-2 secretion (PHA-stimulated Jurkat T cells, ELISA). Format: cell-based. The conditions noted are these: Homo sapiens; Jurkat T cells stimulated with PHA, 20 to 24 hours. The procedure:
The CRAC channel modulatory activity of the compounds were thus evaluated by measuring the secretion of IL-2 by antigen stimulated T-cells in vitro. Alternatively, such activity can also be evaluated by assay methods known to one skilled in the art.
Inhibition of IL-2 secretion: Jurkat T cells were seeded at a density of 0.5 to 1 million cells per well in RPMI medium. Test compounds from this invention were added to the cells at different concentrations. This was followed by the addition of PHA, a T cell mitogen after 10 minutes.
The cells were then incubated for 20 to 24 hours in a CO2 incubator at 37° C. After incubation with the compounds, cells were centrifuged, collected the supernatant and processed for ELISA to quantitate the amount of IL-2 secreted. A commercial ELISA kit (R&D Systems, Inc. Minneapolis, Minn., USA) was used to estimate the IL-2 concentrations. Amount of IL-2 secreted by cells stimulated with PHA was considered as a 100% maximal signal and the decrease in amount of IL-2 secreted by cells treated with the test compounds was expressed as percent inhibition of the maximal signal. The dose response data was analyzed using 4-parametric sigmoidal dose response (variable slope) curve-fit.
Background: An ELISA detects its analyte on a solid surface through an enzyme-linked reagent.
Take `Cc1c(-c2cnc(NC(=O)C3CCc4ccccc4C3)cn2)cccc1-c1nn(C)c(=O)o1` (racemic) [Example 138, (R/S)-N-(5-(2-Methyl-3-(4-methyl-5-oxo-4,5-dihydro-1,3,4-oxadiazol-2-yl)phenyl)pyrazin-2-yl)-1,2,3,4-tetrahydronaphthalene-2-carboxamide]: the IC50 was 100 to 1000 nM.
`Cc1ccc(C2=NOC(C)(C)C2=O)cc1-c1ccc(NC(=O)c2c(F)cccc2F)cc1` [Example 3]: the IC50 is less than 100 nM.
Regarding `Cc1ccc(C2=NOC(C)(C)C2=O)cc1-c1ccc(NC(=O)c2c(F)cccc2F)nc1` [Example 4, N-(5-(5-(5,5-Dimethyl-4-oxo-4,5-dihydroisoxazol-3-yl)-2-methylphenyl)pyridin-2-yl)-2,6-difluorobenzamide], the IC50 was in the range of 100 to 1000 nM.
The figure for `CCc1ccc(C2=NOC(C)(C)C2=O)cc1-c1ccc(NC(=O)c2c(F)cccc2F)cn1` [Example 7, N-(6-(5-(5,5-dimethyl-4-oxo-4,5-dihydroisoxazol-3-yl)-2-ethylphenyl)pyridin-3-yl)-2,6-difluorobenzamide] is 100 to 1000 nM; for `CC(C)c1ccc(C2=NOC(C)(C)C2=O)cc1-c1cnc(NC(=O)c2c(F)cccc2F)cn1` [Example 8, N-(5-(5-(5,5-dimethyl-4-oxo-4,5-dihydroisoxazol-3-yl)-2-isopropylphenyl)pyrazin-2-yl)-2,6-difluorobenzamide] it is 100 to 1000 nM; for `CC1(C)ON=C(c2ccc(C(C)(C)C)c(-c3ccc(NC(=O)c4c(F)cccc4F)cc3)c2)C1=O` [Example 10, N-(2′-(tert-butyl)-5′-(5,5-dimethyl-4-oxo-4,5-dihydroisoxazol-3-yl)-[1,1′-biphenyl]-4-yl)-2,6-difluorobenzamide] it is more than 1000 nM.
Next, `CC1(C)ON=C(c2ccc(Cl)c(-c3ccc(NC(=O)c4c(F)cccc4F)cc3)c2)C1=O` [Example 11, N-(2′-chloro-5′-(5,5-dimethyl-4-oxo-4,5-dihydroisoxazol-3-yl)-[1,1′-biphenyl]-4-yl)-2,6-difluorobenzamide]: 100 to 1000 nM.
Next, `COc1ccc(C2=NOC(C)(C)C2=O)cc1-c1ccc(NC(=O)c2snnc2C)cc1` [Example 16, N-(5′-(5,5-Dimethyl-4-oxo-4,5-dihydroisoxazol-3-yl)-2′-methoxy-[1,1′-biphenyl]-4-yl)-4-methyl-1,2,3-thiadiazole-5-carboxamide]: less than 100 nM; `COc1ccc(C2=NOC(C)(C)C2=O)cc1-c1ccc(NC(=O)c2c(F)cccc2F)nc1` [Example 17, N-(5-(5-(5,5-dimethyl-4-oxo-4,5-dihydroisoxazol-3-yl)-2-methoxyphenyl)pyridin-2-yl)-2,6-difluorobenzamide]: more than 1000 nM.
For `COc1ccc(C2=NOC(C)(C)C2=O)cc1-c1ccc(NC(=O)c2c(F)cccc2F)cn1` [Example 18, N-(6-(5-(5,5-dimethyl-4-oxo-4,5-dihydroisoxazol-3-yl)-2-methoxyphenyl)pyridin-3-yl)-2,6-difluorobenzamide], the IC50 is 100 to 1000 nM.
Next, `CC(=O)Nc1ccc(C2=NOC(C)(C)C2=O)cc1-c1ccc(NC(=O)c2c(F)cccc2F)cc1` [Example 19, N-(2′-acetamido-5′-(5,5-dimethyl-4-oxo-4,5-dihydroisoxazol-3-yl)-[1,1′-biphenyl]-4-yl)-2,6-difluorobenzamide]: less than 100 nM.
Regarding `COC1C(c2ccc(C)c(-c3cnc(NC(=O)c4c(F)cccc4F)cn3)c2)=NOC1(C)C` (centres unmarked) [Example 23, 2,6-difluoro-N-(5-(5-(4-methoxy-5,5-dimethyl-4,5-dihydroisoxazol-3-yl)-2-methylphenyl)pyrazin-2-yl)benzamide], the concentration for half-maximal inhibition (IC50) was in the range of 100 to 1000 nM.
The figure for `COC1C(c2ccc(C)c(-c3ccc(NC(=O)c4c(F)cccc4F)cc3)c2)=NOC1(C)C` (centres unmarked) [Example 24, 2,6-Difluoro-N-(5′-(4-methoxy-5,5-dimethyl-4,5-dihydroisoxazol-3-yl)-2′-methyl-[1,1′-biphenyl]-4-yl)benzamide] is 100 to 1000 nM.
As to `COc1c(C2=NOC(C)(C)C2=O)cccc1-c1ccc(NC(=O)c2c(F)cccc2F)cc1` [Example 31, N-(3′-(5,5-Dimethyl-4-oxo-4,5-dihydroisoxazol-3-yl)-2′-methoxy-[1,1′-bipheny;]-4-yl)-2,6-difluorobenzamide], the IC50 was in the range of 100 to 1000 nM.
Next, `Cc1ccc(-c2nn(C)c(=O)o2)cc1-c1ccc(NC(=O)c2c(F)cccc2F)cc1` [Example 33, 2,6-Difluoro-N-(2′-methyl-5′-(4-methyl-5-oxo-4,5-dihydro-1,3,4-oxadiazol-2-yl)-[1,1′-biphenyl]-4-yl)benzamide]: less than 100 nM; `CCn1nc(-c2ccc(C)c(-c3ccc(NC(=O)c4c(F)cccc4F)cc3)c2)oc1=O` [Example 34, N-(5′-(4-Ethyl-5-oxo-4,5-dihydro-1,3,4-oxadiazol-2-yl)-2′-methyl-[1,1′-biphenyl]-4-yl)-2,6-difluorobenzamide]: less than 100 nM; `COc1ccc(-c2nn(C)c(=O)o2)cc1-c1ccc(NC(=O)c2c(F)cccc2F)cc1` [Example 40, 2,6-Difluoro-N-(2′-methoxy-5′-(4-methyl-5-oxo-4,5-dihydro-1,3,4-oxadiazol-2-yl)[1,1′-biphenyl]-4-yl)benzamide]: less than 100 nM.
`Cn1nc(-c2ccc(Cl)c(-c3ccc(NC(=O)c4c(F)cccc4F)cc3)c2)oc1=O` [Example 46, N-(2′-Chloro-5′-(4-methyl-5-oxo-4,5-dihydro-1,3,4-oxadiazol-2-yl)-[1,1′-biphenyl]-4-yl)-2,6-difluorobenzamide] showed an IC50 of less than 100 nM.
Next, `Cc1ccc(C2=NOC(C)(C)C2)cc1-c1cnc(NC(=O)c2c(F)cccc2F)cn1` [Example 53]: 100 to 1000 nM.
As to `Cc1ccc(C2=NOC3(CCCCC3)C2=O)cc1-c1ccc(NC(=O)c2c(F)cccc2F)cc1` [Example 58, 2,6-Difluoro-N-(2′-methyl-5′-(4-oxo-1-oxa-2-azaspiro[4.5]dec-2-en-3-yl)-[1,1′-biphenyl]-4-yl)benzamide], the IC50 lay within 100 to 1000 nM.
For `Cc1ccc(C2=NC(C)(C)CO2)cc1-c1ccc(NC(=O)c2c(F)cccc2F)cc1` [Example 61, N-(5′-(4,4-dimethyl-4,5-dihydrooxazol-2-yl)-2′-methyl-[1,1′-biphenyl]-4-yl)-2,6-difluorobenzamide], the IC50 lay in the range of 100 to 1000 nM.
As to `Cc1ccc(C2=NOC(C)(C)C2=O)cc1-c1cnc(NC(=O)c2cc(F)ccc2F)cn1` [Example 67, N-(5-(5-(5,5-Dimethyl-4-oxo-4,5-dihydroisoxazol-3-yl)-2-methylphenyl)pyrazine-2-yl)-2,5-difluorobenzamide], the IC50 was in the range of 100 to 1000 nM.
With `Cc1ccc(C2=NOC(C)(C)C2=O)cc1-c1cnc(NC(=O)c2ccc(F)cc2)cn1` [Example 69, N-(5-(5-(5,5-Dimethyl-4-oxo-4,5-dihydroisoxazol-3-yl)-2-methylphenyl)pyrazine-2-yl)-4-fluorobenzamide], the IC50 was more than 1000 nM.
`Cc1ccc(C2=NOC(C)(C)C2=O)cc1-c1cnc(NC(=O)c2ccccc2Cl)cn1` [Example 78, 2-Chloro-N-(5-(5-(5,5-dimethyl-4-oxo-4,5-dihydroisoxazol-3-yl)-2-methylphenyl)pyrazin-2-yl)benzamide] gave an IC50 of 100 to 1000 nM.
`Cc1ccc(C2=NOC(C)(C)C2=O)cc1-c1cnc(NC(=O)c2c(F)cccc2Cl)cn1` [Example 80, 2-Chloro-N-(5-(5-(5,5-dimethyl-4-oxo-4,5-dihydroisoxazol-3-yl)-2-methylphenyl)pyrazin-2-yl)-6-fluorobenzamide] registered an IC50 of less than 100 nM.
The compound `Cc1ccc(-c2nn(C)c(=O)o2)cc1-c1cnc(NC(=O)c2c(F)cccc2F)cn1` [Example 87, 2,6-Difluoro-N-(5-(2-methyl-5-(4-methyl-5-oxo-4,5-dihydro-1,3,4-oxadiazol-2-yl)phenyl)pyrazin-2-yl)benzamide] gave an IC50 of less than 100 nM.
Next, `COc1ccc(-c2nn(C)c(=O)o2)cc1-c1cnc(NC(=O)c2c(F)cccc2F)cn1` [Example 93, 2,6-Difluoro-N-(5-(2-methoxy-5-(4-methyl-5-oxo-4,5-dihydro-1,3,4-oxadiazol-2-yl)phenyl)pyrazin-2-yl)benzamide]: less than 100 nM.
`Cc1ccc(C2=NOC(C)(C)C2=O)cc1-c1cnc(NC(=O)c2c(Cl)cncc2Cl)cn1` [Example 103, 3,5-Dichloro-N-(5-(5-(5,5-dimethyl-4-oxo-4,5-dihydroisoxazol-3-yl)-2-methylphenyl)pyrazin-2-yl)isonicotinamide]: the IC50 was in the range of 100 to 1000 nM.
Next, `Cc1ccc(C2=NOC(C)(C)C2=O)cc1-c1cnc(NC(=O)c2ccncc2F)cn1` [Example 107, N-(5-(5-(5,5-dimethyl-4-oxo-4,5-dihydroisoxazol-3-yl)-2-methylphenyl)pyrazin-2-yl)-3-fluoroisonicotinamide]: 100 to 1000 nM.
Turning to `Cc1ccc(C2=NOC(C)(C)C2=O)cc1-c1cnc(NC(=O)c2cccnc2C)cn1` [Example 113, N-(5-(5-(5,5-dimethyl-4-oxo-4,5-dihydroisoxazol-3-yl)-2-methylphenyl)pyrazin-2-yl)-2-methylnicotinamide], the IC50 fell in the range of 100 to 1000 nM.
Next, `Cc1ccc(C2=NOC(C)(C)C2=O)cc1-c1cnc(NC(=O)c2c(F)cncc2F)cn1` [Example 114, N-(5-(5-(5,5-dimethyl-4-oxo-4,5-dihydroisoxazol-3-yl)-2-methylphenyl)pyrazin-2-yl)-3,5-difluoroisonicotinamide]: less than 100 nM.
Compound `Cc1ccc(C2=NOC(C)(C)C2=O)cc1-c1cnc(C(=O)Nc2c(F)cccc2F)cn1` [Example 121, N-(2,6-Difluorophenyl)-5-(5-(5,5-dimethyl-4-oxo-4,5-dihydroisoxazol-3-yl)-2-methylphenyl)pyrazine-2-carboxamide] displayed a concentration for half-maximal inhibition (IC50) of 100 to 1000 nM.
